Reference: ChEMBL document CHEMBL1127052, “Renin inhibitors containing a pyridyl amino diol derived C-terminus” (J Med Chem, 1993)
pIC50: −log10 of the molar value.

Legend:
[1] = molecular target: T1, Renin (Homo sapiens, UniProt P00797); assay: In vitro inhibition of renin in human plasma; assay type: cell-free
T1 sequence (P00797 whole entry): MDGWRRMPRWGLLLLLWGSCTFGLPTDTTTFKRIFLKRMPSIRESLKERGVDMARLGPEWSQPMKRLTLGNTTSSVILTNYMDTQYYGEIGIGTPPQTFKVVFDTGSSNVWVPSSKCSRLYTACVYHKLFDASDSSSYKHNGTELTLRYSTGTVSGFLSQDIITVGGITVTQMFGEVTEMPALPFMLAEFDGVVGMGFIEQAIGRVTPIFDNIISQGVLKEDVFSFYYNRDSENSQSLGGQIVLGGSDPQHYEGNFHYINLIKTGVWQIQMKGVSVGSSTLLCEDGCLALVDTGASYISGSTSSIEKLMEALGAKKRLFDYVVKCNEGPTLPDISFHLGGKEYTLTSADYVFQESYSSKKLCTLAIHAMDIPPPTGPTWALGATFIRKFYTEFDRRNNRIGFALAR

[2] = molecular target: T1, Renin; assay: In vitro inhibition of purified human kidney renin
[3] = molecular target: T2, Cathepsin E (Homo sapiens, UniProt P14091); assay: Selectivity against human cathepsin E
T2 sequence (P14091 whole entry): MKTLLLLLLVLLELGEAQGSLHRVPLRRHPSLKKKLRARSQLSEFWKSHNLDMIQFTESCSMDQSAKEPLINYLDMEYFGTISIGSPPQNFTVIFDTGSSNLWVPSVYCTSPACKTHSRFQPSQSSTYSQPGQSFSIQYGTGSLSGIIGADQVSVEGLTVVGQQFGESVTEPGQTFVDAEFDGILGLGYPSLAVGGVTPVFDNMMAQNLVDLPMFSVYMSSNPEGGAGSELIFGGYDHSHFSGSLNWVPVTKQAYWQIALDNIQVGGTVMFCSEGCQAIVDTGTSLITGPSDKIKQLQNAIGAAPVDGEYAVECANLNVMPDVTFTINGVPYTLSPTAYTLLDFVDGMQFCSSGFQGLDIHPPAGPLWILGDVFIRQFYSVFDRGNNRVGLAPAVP

[4] = Half-life was determined; assay type: ADME; conditions: human
[5] = molecular target: T3, Gastricsin (Homo sapiens, UniProt P20142); assay: Selectivity against human gastricsin
T3 sequence (P20142 whole entry): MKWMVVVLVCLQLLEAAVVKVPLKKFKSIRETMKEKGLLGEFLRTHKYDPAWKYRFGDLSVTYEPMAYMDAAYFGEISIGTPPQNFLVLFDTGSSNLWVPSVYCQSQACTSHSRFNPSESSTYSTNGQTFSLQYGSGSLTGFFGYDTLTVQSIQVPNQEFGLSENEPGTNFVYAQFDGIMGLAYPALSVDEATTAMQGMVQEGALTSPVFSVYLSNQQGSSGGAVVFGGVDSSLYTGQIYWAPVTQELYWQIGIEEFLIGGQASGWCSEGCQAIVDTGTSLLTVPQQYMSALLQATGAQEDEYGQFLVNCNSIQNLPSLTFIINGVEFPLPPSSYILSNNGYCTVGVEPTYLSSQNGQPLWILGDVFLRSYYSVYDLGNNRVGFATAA

[6] = molecular target: Pepsin A (Homo sapiens, UniProt P0DJD9); assay: Selectivity against human pepsin
[7] = molecular target: Cathepsin D (Homo sapiens, UniProt P07339); assay: Selectivity against human cathepsin D
Sequence of Cathepsin D (P07339 65-162 limits assumed): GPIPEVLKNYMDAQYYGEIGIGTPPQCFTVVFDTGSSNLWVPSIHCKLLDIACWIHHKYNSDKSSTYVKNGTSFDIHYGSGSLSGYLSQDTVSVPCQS
Sequence of Cathepsin D (P07339 169-412 limits assumed): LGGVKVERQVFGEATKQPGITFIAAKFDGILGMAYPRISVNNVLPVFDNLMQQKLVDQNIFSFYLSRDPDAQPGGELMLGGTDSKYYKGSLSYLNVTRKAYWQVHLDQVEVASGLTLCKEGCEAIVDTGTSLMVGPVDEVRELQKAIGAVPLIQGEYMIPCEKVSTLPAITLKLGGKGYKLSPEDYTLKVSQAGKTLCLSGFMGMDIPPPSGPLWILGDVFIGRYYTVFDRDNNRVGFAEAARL

Sequence of Pepsin A (P0DJD9 whole entry): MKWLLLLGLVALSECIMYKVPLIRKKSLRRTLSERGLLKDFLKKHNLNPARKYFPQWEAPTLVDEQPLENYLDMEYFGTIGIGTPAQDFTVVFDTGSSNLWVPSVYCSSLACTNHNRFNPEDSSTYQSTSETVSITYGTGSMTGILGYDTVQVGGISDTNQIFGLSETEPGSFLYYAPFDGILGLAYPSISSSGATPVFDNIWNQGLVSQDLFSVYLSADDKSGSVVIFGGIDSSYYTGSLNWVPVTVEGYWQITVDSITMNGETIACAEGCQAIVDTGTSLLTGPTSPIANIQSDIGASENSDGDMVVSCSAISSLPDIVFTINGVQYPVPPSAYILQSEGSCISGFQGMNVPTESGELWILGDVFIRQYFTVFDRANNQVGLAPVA

Structure (SMILES)	pIC50 [1]	pIC50 [2]	pIC50 [3]	half-life [4] [h]	pIC50 [5]	pIC50 [6]	pIC50 [7]
NC1CCN(C(=O)O[C@@H](Cc2ccccc2)C(=O)N[C@@H](Cc2cnc[nH]2)C(=O)N[C@@H](CC2CCCCC2)[C@@H](O)[C@@H](O)CCc2ccccn2)CC1	9.43	9.28					
COc1ccc(C[C@H](NC(=O)[C@H]2CC[C@@H](N)CC2)C(=O)N[C@@H](Cc2cnc[nH]2)C(=O)N[C@@H](CC2CCCCC2)[C@@H](O)[C@@H](O)CCc2ccccn2)cc1	8.28	8.38		~1.5			
CCOC(=O)CCCCC(=O)N[C@@H](Cc1ccccc1)C(=O)N[C@@H](Cc1c[nH]cn1)C(=O)N[C@@H](CC1CCCCC1)[C@@H](O)[C@@H](O)CCc1ccccn1	9.12	9.16					
NC1CCN(S(=O)(=O)C[C@@H](Cc2ccccc2)C(=O)N[C@@H](Cc2cnc[nH]2)C(=O)N[C@@H](CC2CCCCC2)[C@@H](O)[C@@H](O)CCc2ccccn2)CC1	9.27	9.15		~5			
N[C@H]1CC[C@@H](C(=O)N[C@@H](Cc2ccccc2)C(=O)N[C@@H](Cc2cnc[nH]2)C(=O)N[C@@H](CC2CCCCC2)[C@@H](O)[C@@H](O)CCc2ccccn2)CC1	9.33	9.30		< 0.05			
CSC[C@H](NC(=O)[C@@H](CC(=O)N1CCC(N)CC1)Cc1ccccc1)C(=O)N[C@@H](CC1CCCCC1)[C@@H](O)[C@@H](O)CCc1ccccn1	9.60	9.59					
CN(CCN(C)C(=O)N1CCOCC1)C(=O)O[C@@H](Cc1ccccc1)C(=O)N[C@@H](Cc1c[nH]cn1)C(=O)N[C@@H](CC1CCCCC1)[C@@H](O)[C@@H](O)CCc1ccccn1	9.85	9.80					
CCC[C@H](NC(=O)[C@@H](CC(=O)N1CCC(N)CC1)Cc1ccccc1)C(=O)N[C@@H](CC1CCCCC1)[C@@H](O)[C@@H](O)CCc1ccccn1	8.89	9.17					
N[C@H]1CC[C@@H](S(=O)(=O)C[C@@H](Cc2ccccc2)C(=O)N[C@@H](Cc2cnc[nH]2)C(=O)N[C@@H](CC2CCCCC2)[C@@H](O)[C@@H](O)CCc2ccccn2)CC1	9.51	9.51					

The remaining lines, values ahead:

pIC50 [1]	pIC50 [2]	pIC50 [3]	half-life [4] [h]	pIC50 [5]	pIC50 [6]	pIC50 [7]	Structure (SMILES)
		< 4.00	1.52	< 4.00	< 4.00	< 4.00	NC1CCN(C(=O)C[C@@H](Cc2ccccc2)C(=O)N[C@@H](Cc2c[nH]cn2)C(=O)N[C@@H](CC2CCCCC2)[C@@H](O)[C@@H](O)CCc2ccccn2)CC1
8.96	8.96		0.367				O=C(N[C@@H](Cc1cnc[nH]1)C(=O)N[C@@H](CC1CCCCC1)[C@@H](O)[C@@H](O)CCc1ccccn1)[C@@H](CC(=O)N1CCOCC1)Cc1ccccc1
9.10	9.89						NC1CCN(C(=O)C[C@@H](Cc2cccc3ccccc23)C(=O)N[C@@H](Cc2cnc[nH]2)C(=O)N[C@@H](CC2CCCCC2)[C@@H](O)[C@@H](O)CCc2ccccn2)CC1
9.37	9.77		2.85				CC(C)(C)S(=O)(=O)C[C@@H](Cc1ccccc1)C(=O)N[C@@H](Cc1c[nH]cn1)C(=O)N[C@@H](CC1CCCCC1)[C@@H](O)[C@@H](O)CCc1ccccn1
